Laboratory results taken from patent US6288059A, “Acylated hetero-alicyclic derivatives” (Sankyo Company, Limited, priority 1997, dated 2001).

How the values were obtained:
NK2 receptor = molecular target: T1, NK2 receptor (Cavia porcellus, UniProt Q64077); experiment: NK2 Receptor Binding Test ([3H]-SR-48968, crude ileum membrane fraction); set-up: species or system guinea pig (male Hartley); details: [3H]-SR-48968 1 nM; guinea pig ileum membrane; room temperature, 30 minutes; read-out: IC50 (50% binding drug concentration) (converted)
T1 construct: A crude membrane fraction was prepared from the ileum of male Hartley guinea pigs; from tissue; host or cells: ileum of male Hartley guinea pigs, crude membrane fraction
T1 sequence (Q64077 1-402): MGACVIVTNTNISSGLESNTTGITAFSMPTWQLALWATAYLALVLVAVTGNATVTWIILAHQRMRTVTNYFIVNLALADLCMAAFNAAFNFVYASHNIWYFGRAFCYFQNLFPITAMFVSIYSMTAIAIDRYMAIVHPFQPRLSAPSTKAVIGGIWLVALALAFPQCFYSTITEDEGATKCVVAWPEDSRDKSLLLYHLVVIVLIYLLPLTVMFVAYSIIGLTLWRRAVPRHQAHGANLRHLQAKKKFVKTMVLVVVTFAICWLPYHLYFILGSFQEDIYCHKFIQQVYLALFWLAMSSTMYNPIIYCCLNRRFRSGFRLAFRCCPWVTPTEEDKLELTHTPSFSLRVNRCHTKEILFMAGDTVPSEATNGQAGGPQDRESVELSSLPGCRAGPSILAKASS
Experimental: Test Example 2 NK2 Receptor Binding Test
(a) Preparation of crude ileum membrane fraction
A crude membrane fraction was prepared from the ileum of male Hartley guinea pigs. Namely, the guinea pigs were bled from the cava abdominalis under chloroform anaesthesia and the ileum was extracted immediately.
After the contents secreta and epithelium of the ilium had been scraped off using a glass slide, the extracted ileum was thinly cut in a buffer (1) (50 mM Tris-HCl, pH 7.4) and then homogenized in a buffer (2) [buffer (1) containing 120 mM sodium chloride and 5 mM potassium chloride] using a Polytron homogenizer.
The tissue mass was removed from the homogenate by filtration with a nylon mesh (50 μm) and the supernatant was centrifuged (30,000×g, 30 minutes, 4° C.).
The resultant pellet was resuspended in an ice-cooled buffer (3) [buffer (1) containing 10 mM EDTA and 300 mM potassium chloride], allowed to stand at 4° C. for 60 minutes and then washed centrifugally twice (30,000×g, 15 minutes, 4° C.).
The crude membrane fraction was preserved at -80° C. before use.
(b) Receptor Binding Test
To a mixed solution (250 μl) of the test compound and [^3 H]-SR.-48968 (Amasham Co., final concentration: 1 nM) (50 mM Tris-HCl, pH 7.4; 6 mM manganese chloride, 800 μg/ml BSA, 8 μg/ml chymostatin, 8 μg/ml leupeptin, 80 μg/ml bacitracin, 20 μg/ml phosphoramidon) was added the crude ileum membrane fraction solution (250 μl), followed by incubation at room temperature for 30 minutes.
After the reaction, a membrane ingredient was recovered on a GF/B glass fiber filter (Whatman Co.) using an automatic filtering device (Brandel Co.).
The glass filter was used after pretreatment with a 10% of polyethyleneimine solution for about 4 hours so as to inhibit non-specificbinding as much as possible.
The membrane ingredient-recovered filter was transferred to a mini-plastic vial containing a pico flow (4 ml) and the radioactivity was measured using a liquid scintillation counter (Beckman Co., LSC3500) to determine the 50% binding drug concentration (IC50).

NK2 receptors = details: relative to SR48968; Tachykinin in Health and Disease abstract, 1997; cited from earlier work

SMILES | IC50 (NK2 receptor) [nM] | NK2 receptor-selective antagonistic activity compared with SR.48968 (NK2 receptors)
O=C(C1CCC1)N1CCOC(CCN2CCC3(CC2)c2ccccc2C[S+]3[O-])(c2ccc(Cl)c(Cl)c2)C1 [Example 1, 1-{2-[(2R)-(3,4-dichlorophenyl)-4-(cyclobutanecarbonyl)morpholin-2-yl]ethyl}spiro[benzo[c]thiophene-1(3H),4'-piperidine]-(2S)-oxide] | 1.67 | –
O=C(C1CC1)N1CCOC(CCN2CCC3(CC2)c2ccccc2C[S+]3[O-])(c2ccc(Cl)c(Cl)c2)C1 [Example 2, 1-{2-[(2R)-(3,4-dichlorophenyl)-4-(cyclopropanecarbonyl)morpholin-2-yl]ethyl}spiro[benzo[c]thiophene-1(3H),4'-piperidine]-(2S)-oxide] | 1.39 | –
O=C(C1CCCC1)N1CCOC(CCN2CCC3(CC2)c2ccccc2C[S+]3[O-])(c2ccc(Cl)c(Cl)c2)C1 [Example 3, 1-{2-[(2R)-(3,4-dichlorophenyl)-4-(cyclopentanecarbonyl)morpholin-2-yl]ethyl}spiro[benzo[c]thiophene-1(3H),4'-piperidine]-(2S)-oxide] | 1.58 | –
CN(C)C(=O)NC1(c2ccccc2)CCN(CC[C@@]2(c3ccc(F)c(F)c3)CN(C(=O)c3ccccc3)CCO2)CC1 [SR144190] | – | more potent than that of SR.48968
